Measured values reported in ChEMBL document CHEMBL5042497, “Design, synthesis, and biological evaluation of carbamate derivatives of N-salicyloyl tryptamine as multifunctional agents for the treatment of Alzheimer's disease” (Eur J Med Chem, 2022).
pIC50, pKi: −log10 of the molar value. Calls of active or inactive are those of the source. The rule behind the calls is not given here.

Assays:
[1] = Acute toxicity in Sprague-Dawley rat assessed as histological changes in brain at 2000 mg/kg, IG administered as single dose measured after 14 days by H and E staining based analysis; assay type: organism-based; conditions: in vivo, po, 336 h, time 14 day
[2] = Acute toxicity in Sprague-Dawley rat assessed as histological changes in liver at 2000 mg/kg, IG administered as single dose measured after 14 days by H and E staining based analysis; assay type: organism-based; conditions: in vivo, po, 336 h, time 14 day
[3] = test system: BV-2; assay: cells; assay type: functional, cell-based; conditions: Mus musculus, BV-2, 24 h
Description: Cytotoxicity against mouse BV-2 cells assessed as reduction in cell viability measured after 24 hrs by MTT assay

[4] = Acute toxicity in Sprague-Dawley rat assessed as histological changes in heart at 2000 mg/kg, IG administered as single dose measured after 14 days by H and E staining based analysis; assay type: organism-based; conditions: in vivo, po, 336 h, time 14 day
[5] = test system: BV-2; assay: Anti-neuroinflammation in mouse BV-2 cells assessed as decrease in LPS-induced iNOS activity at 6.25 to 25 umol/L by fluorescence based assay; assay type: functional, cell-based; conditions: dose 6.25-25 µmol/L
[6] = Tmax in Sprague-Dawley rat at 100 mg/kg, po measured upto 24 hrs by LC-MS analysis; assay type: ADME, organism-based; conditions: in vivo
[7] = Acute toxicity in Sprague-Dawley rat assessed as abnormality in living off at 2000 mg/kg, IG administered as single dose measured after 14 days; assay type: organism-based; conditions: in vivo, po, 336 h, time 14 day
[8] = test system: Mus musculus; assay: Anti-alzheimer activity against scopolamine-induced cognitive dysfunction mouse model assessed as change in neuron damage in hippocampal CA1 region at 50 to 100 mg/kg, po measured after 10 days by Nissl staining based assay; assay type: functional, organism-based; conditions: Hippocampus, dose 50-100 mg/kg, time 10.0 day
[9] = test system: BV-2; assay: Effect of compound on LPS- induced ROS production in mouse BV-2 cells at 6.25 to 25 uM by microscopic analysis; assay type: functional, cell-based; conditions: dose 6.25-25 µM
[10] = test system: HT-22; assay: cells; assay type: functional, cell-based; conditions: Mus musculus, HT-22, 24 h
Description: Cytotoxicity against mouse HT-22 cells assessed as reduction in cell viability measured after 24 hrs by MTT assay

[11] = Half life in Sprague-Dawley rat at 100 mg/kg, po measured upto 24 hrs by LC-MS analysis; assay type: ADME, organism-based; conditions: in vivo
[12] = biological target: Amyloid-beta precursor protein (Homo sapiens) (UniProt P05067); assay: Inhibition of amyloid beta (1 to 42 ) (unknown origin) aggregation at 20 umol/L incubated for 24 hrs by thioflavin-T fluorescence method relative to control; conditions: dose 20.0 µmol/L
[13] = Acute toxicity in Sprague-Dawley rat assessed as lethal dose administered intragastrically as single dose measured after 14 days; conditions: in vivo, po, time 14 day
[14] = test system: BV-2; assay: Anti-neuroinflammation in mouse BV-2 cells assessed as decrease in LPS-induced IL-6 production at 6.25 to 25 umol/L measured after 24 hrs by ELISA; assay type: functional, cell-based; conditions: dose 6.25-25 µmol/L
[15] = test system: Mus musculus; assay: Anti-alzheimer activity against scopolamine-induced cognitive dysfunction mouse model assessed as […] of AChE activity in hippocampus at 50 to 100 mg/kg, po dosed for 10 days by colorimetric analysis; assay type: functional, organism-based; conditions: dose 50-100 mg/kg, time 10.0 day
[16] = Acute toxicity in Sprague-Dawley rat assessed as abnormality in diet at 2000 mg/kg, IG administered as single dose measured after 14 days; assay type: organism-based; conditions: in vivo, po, 336 h, time 14 day
[17] = Acute toxicity in Sprague-Dawley rat assessed as abnormality in body weight at 2000 mg/kg, IG administered as single dose measured after 14 days; assay type: organism-based; conditions: in vivo, po, 336 h, time 14 day
[18] = test system: Mus musculus; assay: Anti-alzheimer activity against scopolamine-induced cognitive dysfunction mouse model assessed as change in neuron damage in hippocampal CA3 region at 50 to 100 mg/kg, po measured after 10 days by Nissl staining based assay; assay type: functional, organism-based; conditions: Hippocampus, dose 50-100 mg/kg, time 10.0 day
[19] = biological target: T1, Cholinesterase (Equus caballus, UniProt P81908); assay: Inhibition of equine serum BChE using butyrylthiocholine iodide as substrate assessed as inhibition constant at 0.78 to 12.5 uM preincubated for 10 mins followed by substrate addition and measured after 15 mins by Lineweaver-Burk plot analysis
[20] = biological target: T2, Acetylcholinesterase (Electrophorus electricus, UniProt O42275); assay: Inhibition of electric eel AChE using acetylthiocholine iodide as substrate preincubated for 10 mins followed by substrate addition and measured for 15 mins by Ellman's method
[21] = test system: Mus musculus; assay: Anti-alzheimer activity against scopolamine-induced cognitive dysfunction mouse model assessed as increase in rate of time spend in central and peripheral area at 50 to 100 mg/kg,po dosed for 10 days and measured after 30 mins on day 11 by open field test; assay type: functional, organism-based; conditions: dose 50-100 mg/kg, time 10.0 day
[22] = biological target: T2, Acetylcholinesterase; assay: Inhibition of electric eel AChE using acetylthiocholine iodide as substrate assessed as inhibition constant at 0.78 to 12.5 uM preincubated for 10 mins followed by substrate addition and measured for 15 mins by Lineweaver-Burk plot analysis
[23] = test system: Mus musculus; assay: Anti-alzheimer activity against scopolamine-induced cognitive dysfunction mouse model assessed as decrease in swimming distance at 100 mg/kg, po dosed for 10 days and measured after 30 mins on day 11 by Morris water maze test; assay type: functional, organism-based; conditions: time 10.0 day
[24] = test system: BV-2; assay: Anti-neuroinflammation in mouse BV-2 cells assessed as inhibition of LPS-induced NO production at 100 to 3.125 umol/L measured after 24 hrs by Griess method; assay type: functional, cell-based; conditions: dose 100-3.125 µmol/L
[25] = biological target: T1, Cholinesterase; assay: Inhibition of equine serum BChE using butyrylthiocholine iodide as substrate preincubated for 10 mins followed by substrate addition and measured after 15 mins by Ellman's method
[26] = Acute toxicity in Sprague-Dawley rat assessed as histological changes in spleen at 2000 mg/kg, IG administered as single dose measured after 14 days by H and E staining based analysis; assay type: organism-based; conditions: in vivo, po, 336 h, time 14 day
[27] = Acute toxicity in Sprague-Dawley rat assessed as behavioral abnormality at 2000 mg/kg, IG administered as single dose measured after 14 days; assay type: organism-based; conditions: in vivo, po, 336 h, time 14 day
[28] = test system: BV-2; assay: Effect of compound on LPS- induced iNOS production in mouse BV-2 cells incubated for 24 hrs by western blot analysis; assay type: functional, cell-based; conditions: dose 6.25-25 µM
[29] = MRT(0 to t) in Sprague-Dawley rat at 100 mg/kg, po measured upto 24 hrs by LC-MS analysis; assay type: ADME, organism-based; conditions: in vivo
[30] = test system: Mus musculus; assay: Anti-alzheimer activity against scopolamine-induced cognitive dysfunction mouse model assessed as increase in movement distance in central and peripheral area at 50 to 100 mg/kg,po dosed for 10 days and measured after 30 mins on day 11 by open field test; assay type: functional, organism-based; conditions: dose 50-100 mg/kg, time 10.0 day
[31] = test system: BV-2; assay: Anti-neuroinflammation in mouse BV-2 cells assessed as decrease in LPS-induced TNF-alpha production at 6.25 to 25 umol/L measured after 24 hrs by ELISA; assay type: functional, cell-based; conditions: dose 6.25-25 µmol/L
[32] = Cmax in Sprague-Dawley rat at 100 mg/kg, po measured upto 24 hrs by LC-MS analysis; assay type: ADME, organism-based; set-up: route oral, dose 100 mg/kg, time <=24; conditions: in vivo
[33] = AUC (0 to t) in Sprague-Dawley rat at 100 mg/kg, po measured upto 24 hrs by LC-MS analysis; assay type: ADME, organism-based; set-up: route oral, dose 100 mg/kg, time <=24; conditions: in vivo
[34] = in vivo; conditions: Sprague-Dawley, rat, brain/plasma, 100 mg/kg
Description: Ratio of drug concentration in brain to plasma in Sprague-Dawley rat at 100 mg/kg measured at 10 mins by LC-MS analysis

[35] = test system: BV-2; assay: Anti-neuroinflammation in mouse BV-2 cells assessed as increase in LPS-induced IL-4 production measured after 24 hrs by ELISA; assay type: functional, cell-based; conditions: dose 6.25-25 µmol/L

T1 sequence (P81908 whole entry): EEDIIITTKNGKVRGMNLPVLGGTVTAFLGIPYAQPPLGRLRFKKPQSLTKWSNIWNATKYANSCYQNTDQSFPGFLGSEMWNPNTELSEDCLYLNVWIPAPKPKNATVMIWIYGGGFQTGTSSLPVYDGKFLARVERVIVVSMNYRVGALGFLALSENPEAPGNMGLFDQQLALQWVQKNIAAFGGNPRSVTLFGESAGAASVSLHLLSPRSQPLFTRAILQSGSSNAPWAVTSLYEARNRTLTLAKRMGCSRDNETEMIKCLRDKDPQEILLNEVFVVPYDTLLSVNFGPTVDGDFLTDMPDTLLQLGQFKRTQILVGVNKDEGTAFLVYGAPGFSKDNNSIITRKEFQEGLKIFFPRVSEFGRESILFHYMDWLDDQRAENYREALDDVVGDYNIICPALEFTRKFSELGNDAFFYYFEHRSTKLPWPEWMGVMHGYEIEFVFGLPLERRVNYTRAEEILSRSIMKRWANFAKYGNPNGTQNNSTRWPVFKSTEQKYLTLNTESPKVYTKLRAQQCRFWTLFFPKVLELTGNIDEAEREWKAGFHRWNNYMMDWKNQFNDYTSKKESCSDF
T2 sequence (O42275 whole entry): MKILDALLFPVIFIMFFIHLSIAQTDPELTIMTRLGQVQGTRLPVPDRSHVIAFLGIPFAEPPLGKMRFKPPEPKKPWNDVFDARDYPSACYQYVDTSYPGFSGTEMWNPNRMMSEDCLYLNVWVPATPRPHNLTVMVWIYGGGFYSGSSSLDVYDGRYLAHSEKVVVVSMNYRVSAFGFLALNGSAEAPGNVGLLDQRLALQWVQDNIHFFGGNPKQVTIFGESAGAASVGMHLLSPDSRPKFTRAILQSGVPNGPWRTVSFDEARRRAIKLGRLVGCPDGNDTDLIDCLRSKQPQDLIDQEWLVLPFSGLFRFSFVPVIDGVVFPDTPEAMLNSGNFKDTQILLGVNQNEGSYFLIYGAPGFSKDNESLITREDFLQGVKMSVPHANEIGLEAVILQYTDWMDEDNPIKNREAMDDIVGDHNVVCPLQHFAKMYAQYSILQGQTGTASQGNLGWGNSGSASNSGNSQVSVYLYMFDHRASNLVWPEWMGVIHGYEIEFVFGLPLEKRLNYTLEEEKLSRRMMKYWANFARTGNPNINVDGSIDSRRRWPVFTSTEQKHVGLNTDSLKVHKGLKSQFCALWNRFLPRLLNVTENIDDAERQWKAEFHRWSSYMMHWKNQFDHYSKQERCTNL
Chain of Amyloid-beta precursor protein (Homo sapiens) (P05067 whole entry): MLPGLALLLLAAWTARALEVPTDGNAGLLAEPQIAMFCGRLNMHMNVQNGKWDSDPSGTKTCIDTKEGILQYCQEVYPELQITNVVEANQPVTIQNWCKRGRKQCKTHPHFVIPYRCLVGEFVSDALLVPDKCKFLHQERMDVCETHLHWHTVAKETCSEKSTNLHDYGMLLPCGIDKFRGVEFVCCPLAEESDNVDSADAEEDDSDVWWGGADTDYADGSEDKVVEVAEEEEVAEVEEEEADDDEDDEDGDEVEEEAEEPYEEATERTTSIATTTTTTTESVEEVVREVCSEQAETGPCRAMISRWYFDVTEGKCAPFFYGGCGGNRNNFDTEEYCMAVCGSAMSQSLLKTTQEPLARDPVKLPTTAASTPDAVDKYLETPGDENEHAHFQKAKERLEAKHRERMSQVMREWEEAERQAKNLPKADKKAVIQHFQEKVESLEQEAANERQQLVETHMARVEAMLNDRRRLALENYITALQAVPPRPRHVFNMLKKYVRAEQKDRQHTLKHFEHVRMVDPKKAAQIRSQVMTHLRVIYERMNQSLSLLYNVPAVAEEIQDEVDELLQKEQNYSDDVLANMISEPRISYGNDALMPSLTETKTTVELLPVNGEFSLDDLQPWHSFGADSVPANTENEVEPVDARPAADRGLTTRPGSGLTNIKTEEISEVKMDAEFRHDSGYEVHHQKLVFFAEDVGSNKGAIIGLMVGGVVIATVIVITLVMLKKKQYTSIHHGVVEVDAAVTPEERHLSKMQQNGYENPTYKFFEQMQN

CON(C)C(=O)Oc1ccccc1C(=O)NCCc1c[nH]c2ccccc12
Activity [1]: Non-Toxic
Activity [2]: Non-Toxic
pIC50 [3]: 3.70
Activity [4]: Non-Toxic
Activity [5]: Active
Tmax [6]: 4.8 min
Activity [7]: Non-Toxic
Activity [8]: Active
Activity [9]: Active
pIC50 [10]: 3.86
half-life [11]: 5.34 h
inhibition [12]: 40.3%
LD50 at 336 h [13]: > 2000 mg/kg
Activity [14]: Active
Activity [15]: Active
Activity [16]: Non-Toxic
Activity [17]: Non-Toxic
Activity [18]: Active
pKi [19]: 6.05
pIC50 [20]: 5.49
Activity [21]: Dose-Dependent Effect
pKi [22]: 5.80
Activity [23]: Active
Activity [24]: Active
pIC50 [25]: 5.74
Activity [26]: Non-Toxic
Activity [27]: Non-Toxic
Activity [28]: Dose-Dependent Effect
MRT last at 24 h [29]: 4.89 h
Activity [30]: Dose-Dependent Effect
Activity [31]: Active
Cmax [32]: 3030 ng/mL
AUC(0-t) at 24 h [33]: 3900 ng·h/mL
Kp at 10 min [34]: 15.7
Activity [35]: Dose-Dependent Effect
